# Assay results from patent US20250108038A1 (priority 2023, published 2025).
# Several values for one entry are separate records, joined by “and”; a condition that tells them apart may be missing. Equal values may be shown once.
# Test: Pharmacokinetics after single oral administration to beagle dogs;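 as to AUC0-inf of Compound A (as titled): compound A is measured in plasma as a metabolite of the dosed analog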;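 as to AUC0-last of Compound A (as titled): compound A is measured in plasma as a metabolite of the dosed analog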;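 as to Tlast of Compound A (as titled): compound A is measured in plasma as a metabolite of the dosed analog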;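 as to Tmax of Compound A (as titled): compound A is measured in plasma as a metabolite of the dosed analog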
# Type: in vivo
# Conditions: for Cmax of the analog (Compound I-17/I-19) / T1/2 of the analog (Compound I-17/I-19) / Tmax of the analog (Compound I-17/I-19): oral 10 mg/kg; for plasma concentration of Compound I-17/I-19 (as titled): single PO 80 mg/kg (as titled)
# Description: The concentrations of the analytes in the plasma were quantified by liquid chromatography tandem mass spectrometry (LC-MS/MS).
# The bioanalytical assay provided a lower limit of quantification (LLOQ) of 1.0 ng/mL and an upper limit of quantification (ULOQ) of 3000 ng/mL for all the analytes. The data of plasma concentration vs. time were analyzed using Phoenix WinNonlin 8.3 to determine the PK properties of the analytes.
# The test articles were administered orally by gavage. The nominal dose volume was 5 mL/kg for both analogs.
# The observation included appearance, behavior, morbidity and mortality.
# Approximately 0.5 mL blood was collected at each scheduled time point from the peripheral veins.
# The plasma samples were placed in microcentrifuge tubes and stored at −70+10° C. until analysis.
# [1] = after single PO 10 mg/kg of Compound I-17/I-19, female individual
# [2] = after single PO 10 mg/kg of Compound I-17/I-19, female individual, 10 mg/kg
# [3] = after single PO 10 mg/kg of Compound I-17/I-19, female mean
# [4] = after single PO 10 mg/kg of Compound I-17/I-19, male individual
# [5] = after single PO 10 mg/kg of Compound I-17/I-19, male individual, 10 mg/kg
# [6] = after single PO 10 mg/kg of Compound I-17/I-19, male mean
# [7] = after single PO 80 mg/kg (so in the source) of Compound I-17/I-19, female individual, 80 mg/kg
# [8] = after single PO 80 mg/kg (so in the source) of Compound I-17/I-19, female mean
# [9] = after single PO 80 mg/kg (so in the source) of Compound I-17/I-19, male individual
# [10] = after single PO 80 mg/kg (so in the source) of Compound I-17/I-19, male individual, 80 mg/kg
# [11] = after single PO 80 mg/kg (so in the source) of Compound I-17/I-19, male mean
structure (smiles),measurement,setting,value
Clc1ccc(C2(OCC3OCCO3)c3ccccc3C3=NCCN32)cc1 (stereo not shown) [Compound I-19],Tlast of Compound A (as titled),[1],8.00 h
same,Tmax of Compound A (as titled),[1],1.00 h
same,AUC0-inf of Compound A (as titled),[2],786 ng·h/mL and 1047 ng·h/mL
same,AUC0-last of Compound A (as titled),[2],739 ng·h/mL and 932 ng·h/mL
same,Cmax of Compound A (as titled),[2],258 ng/mL and 262 ng/mL
same,MRT0-inf of Compound A (as titled),[2],2.82 h and 3.68 h
same,MRT0-last of Compound A (as titled),[2],2.29 h and 2.65 h
same,T1/2 of Compound A (as titled),[2],2.23 h and 2.77 h
same,AUC0-inf of Compound A (as titled),[3],916 ng·h/mL
same,AUC0-last of Compound A (as titled),[3],836 ng·h/mL
same,Cmax of Compound A (as titled),[3],260 ng/mL
same,MRT0-inf of Compound A (as titled),[3],3.25 h
same,MRT0-last of Compound A (as titled),[3],2.47 h
same,T1/2 of Compound A (as titled),[3],2.50 h
same,Tlast of Compound A (as titled),[3],8.00 h
same,Tmax of Compound A (as titled),[3],1.00 h
same,Tlast of Compound A (as titled),[4],8.00 h
same,Tmax of Compound A (as titled),[4],1.00 h
same,AUC0-inf of Compound A (as titled),[5],843 ng·h/mL and 756 ng·h/mL
same,AUC0-last of Compound A (as titled),[5],801 ng·h/mL and 737 ng·h/mL
same,Cmax of Compound A (as titled),[5],312 ng/mL and 281 ng/mL
same,MRT0-inf of Compound A (as titled),[5],2.72 h and 2.50 h
same,MRT0-last of Compound A (as titled),[5],2.29 h and 2.31 h
same,T1/2 of Compound A (as titled),[5],1.93 h and 1.39 h
same,AUC0-inf of Compound A (as titled),[6],799 ng·h/mL
same,AUC0-last of Compound A (as titled),[6],769 ng·h/mL
same,Cmax of Compound A (as titled),[6],297 ng/mL
same,MRT0-inf of Compound A (as titled),[6],2.61 h
same,MRT0-last of Compound A (as titled),[6],2.30 h
same,T1/2 of Compound A (as titled),[6],1.66 h
same,Tlast of Compound A (as titled),[6],8.00 h
same,Tmax of Compound A (as titled),[6],1.00 h
same,Tlast of Compound A,"after single PO 80 mg/kg (so in the source) of Compound I-17/I-19, female individual",24.0 h
same,AUC0-inf of Compound A,[7],982 ng·h/mL and 1387 ng·h/mL
same,AUC0-last of Compound A,[7],919 ng·h/mL and 1108 ng·h/mL
same,Cmax of Compound A,[7],160 ng/mL and 113 ng/mL
same,MRT0-inf of Compound A,[7],7.98 h and 14.9 h
same,MRT0-last of Compound A,[7],6.23 h and 8.76 h
same,T1/2 of Compound A,[7],6.54 h and 10.7 h
same,Tmax of Compound A,[7],0.500 h and 2.00 h
same,AUC0-inf of Compound A,[8],1185 ng·h/mL
same,AUC0-last of Compound A,[8],1013 ng·h/mL
same,Cmax of Compound A,[8],137 ng/mL
same,MRT0-inf of Compound A,[8],11.5 h
same,MRT0-last of Compound A,[8],7.49 h
same,T1/2 of Compound A,[8],8.61 h
same,Tlast of Compound A,[8],24.0 h
same,Tmax of Compound A,[8],1.25 h
same,Tlast of Compound A,[9],24.0 h
same,Tmax of Compound A,[9],1.00 h
same,AUC0-inf of Compound A,[10],1022 ng·h/mL and 661 ng·h/mL
same,AUC0-last of Compound A,[10],958 ng·h/mL and 622 ng·h/mL
same,Cmax of Compound A,[10],136 ng/mL and 111 ng/mL
same,MRT0-inf of Compound A,[10],8.63 h and 7.66 h
same,MRT0-last of Compound A,[10],7.01 h and 6.08 h
same,T1/2 of Compound A,[10],6.05 h and 6.28 h
same,AUC0-inf of Compound A,[11],841 ng·h/mL
same,AUC0-last of Compound A,[11],790 ng·h/mL
same,Cmax of Compound A,[11],123 ng/mL
same,MRT0-inf of Compound A,[11],8.14 h
same,MRT0-last of Compound A,[11],6.54 h
same,T1/2 of Compound A,[11],6.16 h
same,Tlast of Compound A,[11],24.0 h
same,Tmax of Compound A,[11],1.00 h
same,"Cmax and AUC0-last of Compound A, compared to Compound I-17","male and female dogs, PO",about 2.5 ×
same,Cmax of the analog (Compound I-17/I-19),female dogs,260 ng/mL
same,T1/2 of the analog (Compound I-17/I-19),female dogs,2.50 hours
same,Tmax of the analog (Compound I-17/I-19),female dogs,1 hour
same,Cmax of the analog (Compound I-17/I-19),male dogs,297 ng/mL
same,T1/2 of the analog (Compound I-17/I-19),male dogs,1.66 hours
same,Tmax of the analog (Compound I-17/I-19),male dogs,1 hour
same,plasma concentration of Compound I-17/I-19,"single PO 10 mg/kg, 0.500 h, female individual, 10 mg/kg",257 ng/mL and 246 ng/mL
same,plasma concentration of Compound I-17/I-19,"single PO 10 mg/kg, 0.500 h, female mean",252 ng/mL
same,plasma concentration of Compound I-17/I-19,"single PO 10 mg/kg, 0.500 h, male individual, 10 mg/kg",259 ng/mL and 195 ng/mL
same,plasma concentration of Compound I-17/I-19,"single PO 10 mg/kg, 0.500 h, male mean",227 ng/mL
same,plasma concentration of Compound I-17/I-19,"single PO 10 mg/kg, 1.00 h, female individual, 10 mg/kg",258 ng/mL and 262 ng/mL
same,plasma concentration of Compound I-17/I-19,"single PO 10 mg/kg, 1.00 h, female mean",260 ng/mL
same,plasma concentration of Compound I-17/I-19,"single PO 10 mg/kg, 1.00 h, male individual, 10 mg/kg",312 ng/mL and 281 ng/mL
same,plasma concentration of Compound I-17/I-19,"single PO 10 mg/kg, 1.00 h, male mean",297 ng/mL
same,plasma concentration of Compound I-17/I-19,"single PO 10 mg/kg, 2.00 h, female individual, 10 mg/kg",186 ng/mL and 240 ng/mL
same,plasma concentration of Compound I-17/I-19,"single PO 10 mg/kg, 2.00 h, female mean",213 ng/mL
same,plasma concentration of Compound I-17/I-19,"single PO 10 mg/kg, 2.00 h, male individual",181 ng/mL
same,plasma concentration of Compound I-17/I-19,"single PO 10 mg/kg, 2.00 h, male mean",181 ng/mL
same,plasma concentration of Compound I-17/I-19,"single PO 10 mg/kg, 4.00 h, female individual, 10 mg/kg",50.7 ng/mL and 78.2 ng/mL
same,plasma concentration of Compound I-17/I-19,"single PO 10 mg/kg, 4.00 h, female mean",64.4 ng/mL
same,plasma concentration of Compound I-17/I-19,"single PO 10 mg/kg, 4.00 h, male individual, 10 mg/kg",64.2 ng/mL and 67.7 ng/mL
same,plasma concentration of Compound I-17/I-19,"single PO 10 mg/kg, 4.00 h, male mean",66.0 ng/mL
same,plasma concentration of Compound I-17/I-19,"single PO 10 mg/kg, 6.00 h, female individual, 10 mg/kg",27.8 ng/mL and 50.5 ng/mL
same,plasma concentration of Compound I-17/I-19,"single PO 10 mg/kg, 6.00 h, female mean",39.1 ng/mL
same,plasma concentration of Compound I-17/I-19,"single PO 10 mg/kg, 6.00 h, male individual, 10 mg/kg",27.3 ng/mL and 22.7 ng/mL
same,plasma concentration of Compound I-17/I-19,"single PO 10 mg/kg, 6.00 h, male mean",25.0 ng/mL
same,plasma concentration of Compound I-17/I-19,"single PO 10 mg/kg, 8.00 h, female individual, 10 mg/kg",14.6 ng/mL and 28.7 ng/mL
same,plasma concentration of Compound I-17/I-19,"single PO 10 mg/kg, 8.00 h, female mean",21.7 ng/mL
same,plasma concentration of Compound I-17/I-19,"single PO 10 mg/kg, 8.00 h, male individual, 10 mg/kg",15.2 ng/mL and 9.16 ng/mL
same,plasma concentration of Compound I-17/I-19,"single PO 10 mg/kg, 8.00 h, male mean",12.2 ng/mL
same,plasma concentration of Compound I-17/I-19,"single PO 10 mg/kg, 24.0 h, female individual",BQL
same,plasma concentration of Compound I-17/I-19,"single PO 10 mg/kg, 24.0 h, male individual",BQL
same,Clinical observation,"single PO 10 mg/kg, beagle dogs",diarrhea at 24 hours post-dose
same,plasma concentration of Compound I-17/I-19 (as titled),"0.500 h, female individual, 80 mg/kg",160 ng/mL and 83.0 ng/mL
same,plasma concentration of Compound I-17/I-19 (as titled),"0.500 h, female mean",121 ng/mL
same,plasma concentration of Compound I-17/I-19 (as titled),"0.500 h, male individual, 80 mg/kg",102 ng/mL and 91.6 ng/mL
same,plasma concentration of Compound I-17/I-19 (as titled),"0.500 h, male mean",96.8 ng/mL
same,plasma concentration of Compound I-17/I-19 (as titled),"2.00 h, female individual",113 ng/mL
same,plasma concentration of Compound I-17/I-19 (as titled),"2.00 h, female mean",113 ng/mL
same,plasma concentration of Compound I-17/I-19 (as titled),"2.00 h, male individual, 80 mg/kg",94.9 ng/mL and 78.9 ng/mL
same,plasma concentration of Compound I-17/I-19 (as titled),"2.00 h, male mean",86.9 ng/mL
same,plasma concentration of Compound I-17/I-19 (as titled),"4.00 h, female individual, 80 mg/kg",87.3 ng/mL and 76.1 ng/mL
same,plasma concentration of Compound I-17/I-19 (as titled),"4.00 h, female mean",81.7 ng/mL
same,plasma concentration of Compound I-17/I-19 (as titled),"4.00 h, male individual, 80 mg/kg",87.4 ng/mL and 60.3 ng/mL
same,plasma concentration of Compound I-17/I-19 (as titled),"4.00 h, male mean",73.8 ng/mL
same,plasma concentration of Compound I-17/I-19 (as titled),"6.00 h, female individual, 80 mg/kg",49.1 ng/mL and 57.9 ng/mL
same,plasma concentration of Compound I-17/I-19 (as titled),"6.00 h, female mean",53.5 ng/mL
same,plasma concentration of Compound I-17/I-19 (as titled),"6.00 h, male individual, 80 mg/kg",60.4 ng/mL and 35.4 ng/mL
same,plasma concentration of Compound I-17/I-19 (as titled),"6.00 h, male mean",47.9 ng/mL
same,plasma concentration of Compound I-17/I-19 (as titled),"8.00 h, female individual, 80 mg/kg",32.5 ng/mL and 52.0 ng/mL
same,plasma concentration of Compound I-17/I-19 (as titled),"8.00 h, female mean",42.3 ng/mL
same,plasma concentration of Compound I-17/I-19 (as titled),"8.00 h, male individual, 80 mg/kg",43.8 ng/mL and 20.9 ng/mL
same,plasma concentration of Compound I-17/I-19 (as titled),"8.00 h, male mean",32.4 ng/mL
same,plasma concentration of Compound I-17/I-19 (as titled),"24.0 h, female individual, 80 mg/kg",6.70 ng/mL and 18.2 ng/mL
same,plasma concentration of Compound I-17/I-19 (as titled),"24.0 h, female mean",12.4 ng/mL
same,plasma concentration of Compound I-17/I-19 (as titled),"24.0 h, male individual, 80 mg/kg",7.39 ng/mL and 4.28 ng/mL
same,plasma concentration of Compound I-17/I-19 (as titled),"24.0 h, male mean",5.83 ng/mL
same,plasma concentration of Compound I-17/I-19 (as titled),"[…] h, female mean",116 ng/mL
same,plasma concentration of Compound I-17/I-19 (as titled),"[…] h, male mean",123 ng/mL
